The text below walks through data of PubChem BioAssay (NCI).

Molecules are shown by their SMILES. Where “and” joins values, the source holds several entries; their conditions need not be identical. Identical values can stand only once.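 How tested: cells in 96-well plates exposed to compound for 48 hours at five concentrations. GI50: concentration for 50% inhibition of growth. TGI: total growth inhibition.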

One assay has as its system IGROV1 ovarian. Kind of assay: DTP human tumour cell line panel, 48 h.
For `C=CCO[C@H]1CO[C@H]2[C@@H]1OC[C@@H]2Oc1ccc(Nc2ccnc(Nc3ccc(O[C@H]4CO[C@H]5[C@@H]4OC[C@@H]5OCC=C)c(Cl)c3)n2)cc1Cl`, the GI50 – broadly, the concentration at which growth is held to half of that of the control – was 1.79 µM and the TGI – broadly, the concentration giving total growth inhibition – was determined as 3.54 µM.
For the compound `COc1ccc2c(c1)sc1nc(-c3ccccc3)c(-c3cccc4ccccc34)n12`, the GI50 was 2.07 µM and the total growth inhibition concentration (TGI) was greater than 100 µM.
`C[N+](C)(C)CC(=O)N/N=C(/CC(=O)CC(C1=C(O)c2ccccc2OC1)c1ccccc1)C(=O)Nc1cccc(Cl)c1` (centres undefined) gave a TGI greater than 100 µM.
In turn, `CCN(CC)N=Nc1c(C(N)=O)n[nH]c1C` had a TGI greater than 100 µM.
On to `OCCN(CCO)c1ncnc2c1ncn2Cc1ccc(CCl)cc1`, for which the GI50 was 19.7 µM and the total growth inhibition concentration (TGI) came to 40.3 µM.
`O=C(Nc1ccccc1)c1c(O)[nH]c(=S)[nH]c1=O`: the GI50 was 45.9 µM; the TGI is 97.1 µM and > 250 µM.
With `Cc1cc(-c2nc(C(=O)Nc3cc4oc(N5CCOCC5)nc4nc3N3CC[C@@H](O)C3)co2)ccn1`, the GI50 is 12.7 µM and the TGI was 72.7 µM.
Consider `COc1ccc(CC2c3cc4c(cc3CCN2C)OCO4)c(C=O)c1OC` (centres undefined), for which the TGI was greater than 100 µM.
`COc1cc(/C=N\NC(=O)CN2CCN(c3cc4c(cc3F)c(=O)c(C(=O)N/N=C/c3cc(OC)c(OC)c(OC)c3)cn4C3CC3)CC2)cc(OC)c1OC`: the GI50 is 0.365 µM and the TGI came out at 11.8 µM.
In the same order, the values of `C=CC(=O)Nc1cc(Nc2ncc(C(=O)OC(C)C)c(-c3cn(C)c4ccccc34)n2)c(OC)cc1N(C)CCN(C)C` are 0.399 µM and 3.12 µM.
For the compound `Cc1nc2sccn2c1-c1csc(Nc2ccccc2Cl)n1`, the GI50 was 5.45 µM and the TGI amounted to 50 µM.
Consider `CN(C)c1ccc(/C=C\C2=[N+](C)c3ccccc3C2(C)C)cc1`, for which the GI50 was 0.458 µM and the TGI was greater than 50.1 µM.
For `Nc1nc(-n2c(-c3ccccc3)nc3c(Br)cc(Br)cc3c2=O)nnc1-c1cccc(Cl)c1Cl` the same measures were 12.9 µM and 45.9 µM.
For `Cn1cc(C2=C(c3c4n(c5ccccc35)CCCCC4)C(=O)NC2=O)c2ccccc21` the same measures were 3.55 µM and greater than 25 µM.
For `Cc1ccnc2c1ccc1c(C)ccnc12` the same measures were 0.471 µM and 13.6 µM.

A further assay has as its system HCT-116 colon. Kind of assay: DTP human tumour cell line panel, 48 h.
For `NC(N)=NS(=O)(=O)c1ccc(Nc2c3ccccc3nc3c(C(=O)NCCO)cccc23)cc1`, the GI50 is 21.9 µM and the TGI was greater than 100 µM.
In the case of `C=CCO[C@H]1CO[C@H]2[C@@H]1OC[C@@H]2Oc1ccc(Nc2ccnc(Nc3ccc(O[C@H]4CO[C@H]5[C@@H]4OC[C@@H]5OCC=C)c(Cl)c3)n2)cc1Cl`, the GI50 is 1.82 µM and the TGI was determined as 3.44 µM.
As for `COc1ccc2c(c1)sc1nc(-c3ccccc3)c(-c3cccc4ccccc34)n12`, the GI50 was 0.615 µM and the TGI is greater than 100 µM.
Compound `C[N+](C)(C)CC(=O)N/N=C(/CC(=O)CC(C1=C(O)c2ccccc2OC1)c1ccccc1)C(=O)Nc1cccc(Cl)c1` (centres undefined) had a TGI greater than 100 µM.
For the compound `CCN(CC)N=Nc1c(C(N)=O)n[nH]c1C`, the TGI is greater than 100 µM.
For `OCCN(CCO)c1ncnc2c1ncn2Cc1ccc(CCl)cc1`, the GI50 is 14 µM and the TGI is 33.8 µM.
For the compound `O=C(Nc1ccccc1)c1c(O)[nH]c(=S)[nH]c1=O`, the GI50 was 58.6 µM; the TGI is 111 µM and > 250 µM.
Turning to `Cc1cc(-c2nc(C(=O)Nc3cc4oc(N5CCOCC5)nc4nc3N3CC[C@@H](O)C3)co2)ccn1`, the GI50 is 30.1 µM and the TGI is greater than 100 µM.
In turn, `COc1ccc(CC2c3cc4c(cc3CCN2C)OCO4)c(C=O)c1OC` (centres undefined) displayed a TGI greater than 100 µM.
With `COc1cc(/C=N\NC(=O)CN2CCN(c3cc4c(cc3F)c(=O)c(C(=O)N/N=C/c3cc(OC)c(OC)c(OC)c3)cn4C3CC3)CC2)cc(OC)c1OC`, the 50% growth inhibitory concentration (GI50) was 0.219 µM and the TGI was 0.5 µM.
For the compound `C=CC(=O)Nc1cc(Nc2ncc(C(=O)OC(C)C)c(-c3cn(C)c4ccccc34)n2)c(OC)cc1N(C)CCN(C)C`, the GI50 was 3.46 µM and the TGI came to 20 µM.
For `Cc1nc2sccn2c1-c1csc(Nc2ccccc2Cl)n1` the same measures were 3.3 µM and 16.2 µM.
For the compound `CN(C)c1ccc(/C=C\C2=[N+](C)c3ccccc3C2(C)C)cc1`, the concentration for 50% growth inhibition (GI50) is 0.32 µM and the TGI was greater than 32.1 µM.
For `Nc1nc(-n2c(-c3ccccc3)nc3c(Br)cc(Br)cc3c2=O)nnc1-c1cccc(Cl)c1Cl` the same measures were 2.43 µM and 7.06 µM.
For `Cn1cc(C2=C(c3c4n(c5ccccc35)CCCCC4)C(=O)NC2=O)c2ccccc21` the same measures were 4.21 µM and greater than 25 µM.
In the same order, the values of `Cc1ccnc2c1ccc1c(C)ccnc12` are 0.418 µM and 13 µM.

The test system of a further assay is UO-31 renal. Kind of assay: DTP human tumour cell line panel, 48 h.
As to `NC(N)=NS(=O)(=O)c1ccc(Nc2c3ccccc3nc3c(C(=O)NCCO)cccc23)cc1`, the GI50 is 18 µM.
For the compound `C=CCO[C@H]1CO[C@H]2[C@@H]1OC[C@@H]2Oc1ccc(Nc2ccnc(Nc3ccc(O[C@H]4CO[C@H]5[C@@H]4OC[C@@H]5OCC=C)c(Cl)c3)n2)cc1Cl`, the GI50 is 1.58 µM and the TGI came out at 2.93 µM.
In the same order, the values of `COc1ccc2c(c1)sc1nc(-c3ccccc3)c(-c3cccc4ccccc34)n12` are 1.34 µM and greater than 100 µM.
`C[N+](C)(C)CC(=O)N/N=C(/CC(=O)CC(C1=C(O)c2ccccc2OC1)c1ccccc1)C(=O)Nc1cccc(Cl)c1` (centres undefined) registered a concentration for total growth inhibition (TGI) greater than 100 µM.
On the same count and under the same terms, the same measure for `CCN(CC)N=Nc1c(C(N)=O)n[nH]c1C`: greater than 100 µM.
In the case of `OCCN(CCO)c1ncnc2c1ncn2Cc1ccc(CCl)cc1`, the GI50 was 14.9 µM and the total growth inhibition concentration (TGI) came out at 31 µM.
Regarding `O=C(Nc1ccccc1)c1c(O)[nH]c(=S)[nH]c1=O`, the GI50 was 65.4 µM; the TGI was 65.9 µM and 174 µM.
With `Cc1cc(-c2nc(C(=O)Nc3cc4oc(N5CCOCC5)nc4nc3N3CC[C@@H](O)C3)co2)ccn1`, the GI50 was 14.9 µM and the TGI was 68.7 µM.
